Experiment [1] in a line: growth suppression of beta-catenin-knockout colon cells, dose response, cell-based, HCT116, human colon tumor (AID 1045).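 Also: HCT116 colon tumor cells with beta catenin knocked out; cells exposed to compound for 60 hours.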 In kind it is functional.
A further experiment has as its target T1, Exodeoxyribonuclease V (Escherichia coli (strain K12), UniProt P04993+P07648+P08394).
T1 sequence (P04993 whole entry): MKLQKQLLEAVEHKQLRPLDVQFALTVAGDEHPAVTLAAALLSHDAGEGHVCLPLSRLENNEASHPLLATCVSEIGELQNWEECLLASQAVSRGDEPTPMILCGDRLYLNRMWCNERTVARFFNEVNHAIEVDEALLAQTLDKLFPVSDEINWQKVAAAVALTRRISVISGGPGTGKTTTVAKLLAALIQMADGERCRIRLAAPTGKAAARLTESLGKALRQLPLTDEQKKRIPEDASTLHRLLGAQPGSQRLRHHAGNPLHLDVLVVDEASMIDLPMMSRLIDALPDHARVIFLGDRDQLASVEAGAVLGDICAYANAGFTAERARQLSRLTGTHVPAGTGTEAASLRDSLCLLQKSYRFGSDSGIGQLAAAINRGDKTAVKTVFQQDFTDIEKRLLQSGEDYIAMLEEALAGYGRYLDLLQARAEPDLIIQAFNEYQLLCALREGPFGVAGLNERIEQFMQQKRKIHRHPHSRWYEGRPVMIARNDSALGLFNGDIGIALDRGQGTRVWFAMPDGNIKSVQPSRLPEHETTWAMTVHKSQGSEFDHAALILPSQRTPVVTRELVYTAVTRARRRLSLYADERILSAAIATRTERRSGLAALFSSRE
T1 sequence (P07648 whole entry): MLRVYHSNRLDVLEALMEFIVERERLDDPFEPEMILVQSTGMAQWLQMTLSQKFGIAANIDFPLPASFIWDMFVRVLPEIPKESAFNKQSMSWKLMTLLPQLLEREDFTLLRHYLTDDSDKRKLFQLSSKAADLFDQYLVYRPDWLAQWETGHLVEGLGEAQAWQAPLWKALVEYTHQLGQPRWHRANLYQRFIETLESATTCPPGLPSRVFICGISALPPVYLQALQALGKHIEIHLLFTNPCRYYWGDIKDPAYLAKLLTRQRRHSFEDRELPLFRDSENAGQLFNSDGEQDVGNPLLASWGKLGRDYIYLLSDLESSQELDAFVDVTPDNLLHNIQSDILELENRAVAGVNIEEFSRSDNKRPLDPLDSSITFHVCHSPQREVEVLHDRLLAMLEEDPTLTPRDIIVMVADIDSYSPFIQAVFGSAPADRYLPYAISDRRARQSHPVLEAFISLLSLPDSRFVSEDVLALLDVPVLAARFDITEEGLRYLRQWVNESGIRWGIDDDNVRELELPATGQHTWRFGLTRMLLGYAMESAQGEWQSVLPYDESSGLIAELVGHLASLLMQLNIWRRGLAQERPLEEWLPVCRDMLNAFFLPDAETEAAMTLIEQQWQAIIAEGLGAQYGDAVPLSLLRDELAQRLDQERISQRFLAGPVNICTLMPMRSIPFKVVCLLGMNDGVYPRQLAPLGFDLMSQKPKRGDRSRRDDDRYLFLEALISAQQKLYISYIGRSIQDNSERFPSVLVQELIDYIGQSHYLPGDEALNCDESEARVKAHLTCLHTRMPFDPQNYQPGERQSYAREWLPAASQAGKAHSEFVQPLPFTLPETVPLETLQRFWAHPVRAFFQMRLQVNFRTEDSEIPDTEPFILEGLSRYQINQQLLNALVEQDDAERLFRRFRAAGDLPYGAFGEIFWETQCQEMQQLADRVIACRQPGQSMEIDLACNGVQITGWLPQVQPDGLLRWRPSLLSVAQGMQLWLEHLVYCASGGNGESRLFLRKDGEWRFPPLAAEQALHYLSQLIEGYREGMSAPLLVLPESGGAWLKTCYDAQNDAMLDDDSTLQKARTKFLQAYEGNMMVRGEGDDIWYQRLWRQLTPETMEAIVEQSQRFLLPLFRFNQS
T1 sequence (P08394 whole entry): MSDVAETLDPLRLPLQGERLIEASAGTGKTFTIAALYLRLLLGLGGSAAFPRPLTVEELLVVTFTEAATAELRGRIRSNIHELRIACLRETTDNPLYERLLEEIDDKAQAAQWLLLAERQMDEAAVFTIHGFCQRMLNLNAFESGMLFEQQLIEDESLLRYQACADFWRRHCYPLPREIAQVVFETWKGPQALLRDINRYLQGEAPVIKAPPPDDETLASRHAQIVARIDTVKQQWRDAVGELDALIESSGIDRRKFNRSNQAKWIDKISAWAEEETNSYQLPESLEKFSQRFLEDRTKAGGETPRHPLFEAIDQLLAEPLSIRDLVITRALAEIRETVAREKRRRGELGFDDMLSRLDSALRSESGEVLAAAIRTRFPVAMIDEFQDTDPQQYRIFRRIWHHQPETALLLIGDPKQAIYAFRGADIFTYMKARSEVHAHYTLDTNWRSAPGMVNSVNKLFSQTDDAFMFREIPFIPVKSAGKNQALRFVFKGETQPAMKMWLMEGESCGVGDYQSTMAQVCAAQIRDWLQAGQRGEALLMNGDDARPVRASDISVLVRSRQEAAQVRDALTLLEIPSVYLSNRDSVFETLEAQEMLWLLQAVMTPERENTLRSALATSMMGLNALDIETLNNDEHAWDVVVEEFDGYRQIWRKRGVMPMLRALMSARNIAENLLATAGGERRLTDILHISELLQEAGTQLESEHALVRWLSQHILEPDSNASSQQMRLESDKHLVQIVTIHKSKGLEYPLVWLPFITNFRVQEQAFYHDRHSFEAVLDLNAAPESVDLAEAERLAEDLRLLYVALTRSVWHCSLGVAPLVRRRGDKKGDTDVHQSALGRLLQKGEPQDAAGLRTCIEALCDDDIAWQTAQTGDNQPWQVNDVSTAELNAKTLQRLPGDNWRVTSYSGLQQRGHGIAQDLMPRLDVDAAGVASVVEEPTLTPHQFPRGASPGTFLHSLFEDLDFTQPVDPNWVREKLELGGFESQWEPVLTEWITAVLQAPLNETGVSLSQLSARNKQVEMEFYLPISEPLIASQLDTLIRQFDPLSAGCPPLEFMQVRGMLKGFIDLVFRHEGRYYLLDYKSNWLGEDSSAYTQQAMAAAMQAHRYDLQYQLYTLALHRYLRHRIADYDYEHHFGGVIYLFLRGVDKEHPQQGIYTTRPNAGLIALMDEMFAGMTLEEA
As to the kind of experiment: E. coli RecBCD inhibitors, dose response, counter-screen for AddAB inhibitor project, absorbance, V66 E. coli, mutant T4 phage (AID 492957). In kind it is functional, cell-based, Escherichia coli str. K-12 substr. MG1655. (A counterscreen serves to expose hits that act by an unwanted route or on another target.)

Experiment [2] is described as follows: inhibitors of intracellular T. cruzi replication, confirmation, NIH3T3 host cells, beta-gal luminescence (AID 2044).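 Also: intracellular parasites grown in NIH/3T3 mouse fibroblasts as host cells; luminescent beta-galactosidase reporter signal from transgenic T. cruzi replicating inside host cells; inhibitors lower the luminescence signal.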 It counts as functional, cell-based.
Experiment [3] addresses UDP-galactopyranose mutase (Mycobacterium tuberculosis, UniProt P9WIQ1). As to the kind of experiment: Inhibitors of Mycobacterium tuberculosis UDP-galactopyranose mutase (UGM) enzyme Measured in Biochemical System Using Plate Reader - 2105-02_Inhibitor_Dose_CherryPick_Activity. [Related pubchem assays (depositor defined):AID504439].
Another experiment relates to HEK293. As to the kind of experiment: cells. Conditions: Homo sapiens. It counts as functional, cell-based.

The source made the active and inactive calls.

In ChEMBL document CHEMBL1201862, “PubChem BioAssay data set” (2004) one finds EC50, IC50 and AC50 data, which are given here for three compounds.

Sequence of UDP-galactopyranose mutase (P9WIQ1 whole entry): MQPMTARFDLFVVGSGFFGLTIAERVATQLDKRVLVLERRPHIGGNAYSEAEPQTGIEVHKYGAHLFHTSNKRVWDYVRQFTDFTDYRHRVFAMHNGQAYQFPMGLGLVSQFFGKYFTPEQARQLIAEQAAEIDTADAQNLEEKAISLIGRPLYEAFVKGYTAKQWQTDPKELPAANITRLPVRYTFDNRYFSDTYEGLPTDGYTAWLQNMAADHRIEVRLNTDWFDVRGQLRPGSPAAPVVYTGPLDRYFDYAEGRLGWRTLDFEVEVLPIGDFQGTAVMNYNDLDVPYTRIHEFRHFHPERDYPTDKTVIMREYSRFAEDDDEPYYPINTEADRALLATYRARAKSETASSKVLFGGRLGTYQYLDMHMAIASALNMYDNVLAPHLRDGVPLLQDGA

Usually EC50 stands for the concentration needed to bring the measured effect to its halfway point. Consider `COc1ccc(CNC(=O)c2c(C)oc3c2C(=O)c2ccccc2C3=O)cc1`, for which the EC50 in experiment [1] is 13.9 µM (active).
The term IC50 denotes the concentration needed to halve the response being measured. What is called AC50 is the concentration giving half of the maximal activity seen. As to `O=[N+]([O-])c1ccc(/C=N/n2cnc3ccccc32)s1`, the IC50 on Exodeoxyribonuclease V is > 119 µM (inactive). The concentration giving a half-maximal response (EC50) in experiment [2] is 0.257 µM (active). The concentration at half-maximal activity (AC50) in experiment [3] was 148 µM (active).
As to `CCSc1nsc(NC(=O)Nc2cccc(F)c2)n1`, the IC50 was > 119 µM (inactive) on Exodeoxyribonuclease V and 10.8 µM (active) with HEK293.
